In patent publication US20070128217A1 (priority 2003, published 2007):

Tests used:
[1] = test system: control sera (pooled serum of ten healthy LUMC hospital workers; commercial negative donor pooled serum from the Dutch bloodbank); type: binding, human; parameters: Binding of Control serum LUMC to linear peptides / Binding of Control serum Blood-bank to linear peptides / Binding of Control serum LUMC to looped peptides / Binding of Control Serum Blood-Bank to Looped peptides / Binding of Control serum LUMC to linear peptides of the protein M of SARS-CoV Urbani / Binding of Control serum Blood-bank to linear peptides of the protein M of SARS-CoV Urbani / Binding of Control serum LUMC to looped peptides of the protein M of SARS-CoV Urbani / Binding of Control Serum Blood-Bank to Looped peptides of the protein M of SARS-CoV Urbani: unit not given here
[2] = test system: antibodies in sera from SARS patients (sera 1a, 1b, 2, 6, 37, 62, London, SARS-yellow, SARS-green); type: binding, human; parameters: Binding of serum 6 to linear peptides of protein X1 of SARS-CoV Urbani / Binding of serum 37 to linear peptides of protein X1 of SARS-CoV Urbani / Binding of serum 6 to looped/cyclic peptide (PEPSCAN-ELISA) / Binding of serum 37 to looped/cyclic peptide (PEPSCAN-ELISA) / Binding of serum 37 to looped/cyclic peptides of protein X1 of SARS-CoV Urbani / Binding of serum 6 to linear peptides of protein X2 / Binding of serum 37 to linear peptides of protein X2 / Binding of serum 37 to looped/cyclic peptides of protein X2 of SARS-CoV Urbani / Binding of serum 6 to linear peptides of protein M of SARS-CoV Urbani / Binding of serum 37 to linear peptides of protein M of SARS-CoV Urbani / Binding of serum 6 to looped/cyclic peptides of protein M of SARS-CoV Urbani / Binding of serum 37 to looped/cyclic peptides of protein M of SARS-CoV Urbani / Binding of serum 6 to linear peptides of protein X3 of SARS-CoV Urbani / Binding of serum 37 to linear peptides of protein X3 of SARS-CoV Urbani / Binding of serum 37 to looped/cyclic peptides of protein X3 of SARS-CoV Urbani / Binding of serum 6 to linear peptides of protein X4 of SARS-CoV Urbani / Binding of serum 37 to linear peptides of protein X4 of SARS-CoV Urbani / Binding of serum 37 to looped/cyclic peptides of protein X4 of SARS-CoV Urbani / Binding of serum 6 to linear peptides of protein X5 of SARS-CoV Urbani / Binding of serum 37 to linear peptides of protein X5 of SARS-CoV Urbani / Binding of serum 37 to looped/cyclic peptides of protein X5 of SARS-CoV Urbani / Binding of serum 6 to linear peptides of protein N of SARS-CoV Urbani / Binding of serum 37 to linear peptides of protein N of SARS-CoV Urbani / Binding of serum 6 to linear peptide (PEPSCAN-ELISA) / Binding of serum 1a to looped/cyclic peptides of protein N of SARS-CoV Urbani / Binding of serum 1b to looped/cyclic peptides of protein N of SARS-CoV Urbani / Binding of serum 2 to looped/cyclic peptides of protein N of SARS-CoV Urbani / Binding of serum 6 to looped/cyclic peptides of protein N of SARS-CoV Urbani / Binding of serum 37 to looped/cyclic peptides of protein N of SARS-CoV Urbani / Binding of serum 62 to looped/cyclic peptides of protein N of SARS-CoV Urbani / Binding of serum London to looped/cyclic peptides of protein N of SARS-CoV Urbani / Binding of serum SARS-green to looped/cyclic peptides of protein N of SARS-CoV Urbani: unit not given here
[3] = test system: rabbit serum obtained by immunizing a rabbit with the SARS-CoV strain Frankfurt 1; type: binding; parameters: Binding of a rabbit serum to linear peptides / Binding of a rabbit serum to looped peptides / Rabbit serum linear peptides / Rabbit serum looped peptides / Binding of a rabbit serum to linear peptides of protein N of SARS-CoV Urbani (Rabbit serum linear peptides) / Binding of a rabbit serum to looped/cyclic peptides of protein N of SARS-CoV Urbani (Rabbit serum looped peptides): unit not given here

IVGLMWLSYFVASFR
Binding of Control Serum Blood-Bank to Looped peptides of the protein M of SARS-CoV Urbani [1]: 0.7 | Binding of Control serum Blood-bank to linear peptides of the protein M of SARS-CoV Urbani [1]: 0.5 | Binding of Control serum LUMC to linear peptides of the protein M of SARS-CoV Urbani [1]: 0.2 | Binding of Control serum LUMC to looped peptides of the protein M of SARS-CoV Urbani [1]: 0.6 | Binding of serum 1a to linear peptides of protein M of SARS-CoV Urbani [2]: 0.6 | Binding of serum 1a to looped/cyclic peptides of protein M of SARS-CoV Urbani [2]: 0.7 | Binding of serum 1b to linear peptides of protein M of SARS-CoV Urbani [2]: 0.4 | Binding of serum 1b to looped/cyclic peptides of protein M of SARS-CoV Urbani [2]: 0.5 | Binding of serum 2 to linear peptides of protein M of SARS-CoV Urbani [2]: 0.5 | Binding of serum 2 to looped/cyclic peptides of protein M of SARS-CoV Urbani [2]: 1.0 | Binding of serum 6 to linear peptides of protein M of SARS-CoV Urbani [2]: 0.3 | Binding of serum 6 to looped/cyclic peptides of protein M of SARS-CoV Urbani [2]: 0.7 | Binding of serum 37 to linear peptides of protein M of SARS-CoV Urbani [2]: 0.5 | Binding of serum 37 to looped/cyclic peptides of protein M of SARS-CoV Urbani [2]: 0.7 | Binding of serum 62 to linear peptides of protein M of SARS-CoV Urbani [2]: 0.7 | Binding of serum 62 to looped/cyclic peptides of protein M of SARS-CoV Urbani [2]: 0.7 | Binding of serum London to linear peptides of protein M of SARS-CoV Urbani [2]: 0.3 | Binding of serum London to looped/cyclic peptides of protein M of SARS-CoV Urbani [2]: 0.2 | Binding of serum SARS-green to linear peptides of protein M of SARS-CoV Urbani [2]: 0.2 | Binding of serum SARS-green to looped/cyclic peptides of protein M of SARS-CoV Urbani [2]: 0.1 | Binding of serum SARS-yellow to linear peptides of protein M of SARS-CoV Urbani [2]: 0.1 | Binding of serum SARS-yellow to looped/cyclic peptides of protein M of SARS-CoV Urbani [2]: 0.6 | Rabbit serum linear peptides [3]: 0.3 | Rabbit serum looped peptides [3]: 0.5

LLQTLVLKMLHSSSL
Binding of Control Serum Blood-Bank to Looped peptides [1]: 0.6 | Binding of Control serum Blood-bank to linear peptides [1]: 0.5 | Binding of Control serum LUMC to linear peptides [1]: 0.3 | Binding of Control serum LUMC to looped peptides [1]: 0.6 | Binding of serum 1a to linear peptides of protein X2 [2]: 0.6 | Binding of serum 1a to looped/cyclic peptides of protein X2 of SARS-CoV Urbani [2]: 0.5 | Binding of serum 1b to linear peptides of protein X2 [2]: 0.5 | Binding of serum 1b to looped/cyclic peptides of protein X2 of SARS-CoV Urbani [2]: 0.5 | Binding of serum 2 to linear peptides of protein X2 [2]: 0.3 | Binding of serum 2 to looped/cyclic peptides of protein X2 of SARS-CoV Urbani [2]: 0.3 | Binding of serum 6 to linear peptides of protein X2 [2]: 0.3 | Binding of serum 6 to looped/cyclic peptides of protein X2 of SARS-CoV Urbani [2]: 0.7 | Binding of serum 37 to linear peptides of protein X2 [2]: 0.5 | Binding of serum 37 to looped/cyclic peptides of protein X2 of SARS-CoV Urbani [2]: 0.4 | Binding of serum 62 to linear peptides of protein X2 [2]: 0.5 | Binding of serum 62 to looped/cyclic peptides of protein X2 of SARS-CoV Urbani [2]: 0.6 | Binding of serum London to linear peptides of protein X2 [2]: 0.4 | Binding of serum London to looped/cyclic peptides of protein X2 of SARS-CoV Urbani [2]: 1.1 | Binding of serum SARS-green to linear peptides of protein X2 [2]: 0.5 | Binding of serum SARS-green to looped/cyclic peptides of protein X2 of SARS-CoV Urbani [2]: 0.3 | Binding of serum SARS-yellow to linear peptides of protein X2 [2]: 0.5 | Binding of serum SARS-yellow to looped/cyclic peptides of protein X2 of SARS-CoV Urbani [2]: 0.5 | Binding of a rabbit serum to linear peptides [3]: 0.2 | Binding of a rabbit serum to looped peptides [3]: 0.4

SLLKTHRMCKYTQST
Binding of Control Serum Blood-Bank to Looped peptides [1]: 0.4 | Binding of Control serum Blood-bank to linear peptides [1]: 0.9 | Binding of Control serum LUMC to linear peptides [1]: 0.8 | Binding of Control serum LUMC to looped peptides [1]: 0.4 | Binding of serum 1a to linear peptides of protein X2 [2]: 0.8 | Binding of serum 1a to looped/cyclic peptides of protein X2 of SARS-CoV Urbani [2]: 0.3 | Binding of serum 1b to linear peptides of protein X2 [2]: 0.6 | Binding of serum 1b to looped/cyclic peptides of protein X2 of SARS-CoV Urbani [2]: 0.2 | Binding of serum 2 to linear peptides of protein X2 [2]: 0.6 | Binding of serum 2 to looped/cyclic peptides of protein X2 of SARS-CoV Urbani [2]: 0.1 | Binding of serum 6 to linear peptides of protein X2 [2]: 0.6 | Binding of serum 6 to looped/cyclic peptides of protein X2 of SARS-CoV Urbani [2]: 0.2 | Binding of serum 37 to linear peptides of protein X2 [2]: 0.6 | Binding of serum 37 to looped/cyclic peptides of protein X2 of SARS-CoV Urbani [2]: 0.3 | Binding of serum 62 to linear peptides of protein X2 [2]: 0.7 | Binding of serum 62 to looped/cyclic peptides of protein X2 of SARS-CoV Urbani [2]: 0.4 | Binding of serum London to linear peptides of protein X2 [2]: 0.6 | Binding of serum London to looped/cyclic peptides of protein X2 of SARS-CoV Urbani [2]: 0.2 | Binding of serum SARS-green to linear peptides of protein X2 [2]: 0.7 | Binding of serum SARS-green to looped/cyclic peptides of protein X2 of SARS-CoV Urbani [2]: 0.1 | Binding of serum SARS-yellow to linear peptides of protein X2 [2]: 0.7 | Binding of serum SARS-yellow to looped/cyclic peptides of protein X2 of SARS-CoV Urbani [2]: 0.2 | Binding of a rabbit serum to linear peptides [3]: 0.3 | Binding of a rabbit serum to looped peptides [3]: 0.3

TCTPNVTINCQDPAG
Binding of Control Serum Blood-Bank to Looped peptides [1]: 0.4 | Binding of Control serum Blood-bank to linear peptides [1]: 0.7 | Binding of Control serum LUMC to linear peptides [1]: 0.5 | Binding of Control serum LUMC to looped peptides [1]: 0.2 | Binding of serum 1a to linear peptides of protein X5 of SARS-CoV Urbani [2]: 0.8 | Binding of serum 1a to looped/cyclic peptides of protein X5 of SARS-CoV Urbani [2]: 0.2 | Binding of serum 1b to linear peptides of protein X5 of SARS-CoV Urbani [2]: 0.6 | Binding of serum 1b to looped/cyclic peptides of protein X5 of SARS-CoV Urbani [2]: 0.0 | Binding of serum 2 to linear peptides of protein X5 of SARS-CoV Urbani [2]: 0.6 | Binding of serum 2 to looped/cyclic peptides of protein X5 of SARS-CoV Urbani [2]: 0.1 | Binding of serum 6 to linear peptides of protein X5 of SARS-CoV Urbani [2]: 0.8 | Binding of serum 6 to looped/cyclic peptides of protein X5 of SARS-CoV Urbani [2]: 0.1 | Binding of serum 37 to linear peptides of protein X5 of SARS-CoV Urbani [2]: 0.7 | Binding of serum 37 to looped/cyclic peptides of protein X5 of SARS-CoV Urbani [2]: 0.1 | Binding of serum 62 to linear peptides of protein X5 of SARS-CoV Urbani [2]: 0.8 | Binding of serum 62 to looped/cyclic peptides of protein X5 of SARS-CoV Urbani [2]: 0.1 | Binding of serum London to linear peptides of protein X5 of SARS-CoV Urbani [2]: 0.8 | Binding of serum London to looped/cyclic peptides of protein X5 of SARS-CoV Urbani [2]: 0.1 | Binding of serum SARS-green to linear peptides of protein X5 of SARS-CoV Urbani [2]: 0.8 | Binding of serum SARS-green to looped/cyclic peptides of protein X5 of SARS-CoV Urbani [2]: 0.2 | Binding of serum SARS-yellow to linear peptides of protein X5 of SARS-CoV Urbani [2]: 0.2 | Binding of serum SARS-yellow to looped/cyclic peptides of protein X5 of SARS-CoV Urbani [2]: 0.0 | Rabbit serum linear peptides [3]: 0.5 | Rabbit serum looped peptides [3]: 0.0

YSHLLLVAAGMEAQF
Binding of Control Serum Blood-Bank to Looped peptides [1]: 0.4 | Binding of Control serum Blood-bank to linear peptides [1]: 0.6 | Binding of Control serum LUMC to linear peptides [1]: 0.5 | Binding of Control serum LUMC to looped peptides [1]: 0.6 | Binding of serum 1a to linear peptides of protein X1 of SARS-CoV Urbani [2]: 0.7 | Binding of serum 1a to looped/cyclic peptide (PEPSCAN-ELISA) [2]: 0.4 | Binding of serum 1b to linear peptides of protein X1 of SARS-CoV Urbani [2]: 0.6 | Binding of serum 1b to looped/cyclic peptide (PEPSCAN-ELISA) [2]: 0.4 | Binding of serum 2 to linear peptides of protein X1 of SARS-CoV Urbani [2]: 0.5 | Binding of serum 2 to looped/cyclic peptide (PEPSCAN-ELISA) [2]: 0.5 | Binding of serum 6 to linear peptides of protein X1 of SARS-CoV Urbani [2]: 0.5 | Binding of serum 6 to looped/cyclic peptide (PEPSCAN-ELISA) [2]: 0.3 | Binding of serum 37 to linear peptides of protein X1 of SARS-CoV Urbani [2]: 0.6 | Binding of serum 37 to looped/cyclic peptide (PEPSCAN-ELISA) [2]: 0.7 | Binding of serum 62 to linear peptides of protein X1 of SARS-CoV Urbani [2]: 0.7 | Binding of serum 62 to looped/cyclic peptide (PEPSCAN-ELISA) [2]: 0.5 | Binding of serum London to linear peptides of protein X1 of SARS-CoV Urbani [2]: 0.3 | Binding of serum London to looped/cyclic peptide (PEPSCAN-ELISA) [2]: 0.3 | Binding of serum SARS-green to linear peptides of protein X1 of SARS-CoV Urbani [2]: 0.3 | Binding of serum SARS-green to looped/cyclic peptide (PEPSCAN-ELISA) [2]: 0.5 | Binding of serum SARS-yellow to linear peptides of protein X1 of SARS-CoV Urbani [2]: 0.4 | Binding of serum SARS-yellow to looped/cyclic peptide (PEPSCAN-ELISA) [2]: 0.3 | Binding of a rabbit serum to linear peptides [3]: 0.1 | Binding of a rabbit serum to looped peptides [3]: 0.4
